Drawing on ChEMBL document CHEMBL3091415, “Aza-cycloisodityrosine analogue of RA-VII, an antitumor bicyclic hexapeptide” (Bioorg Med Chem Lett, 2013), this text covers IC50 for two compounds.

In brackets after ≈: the same amount, converted by molar mass.

One assay has as its system HL-60. In words: Cytotoxicity against human HL60 cells after 48 hrs by MTT assay. The class given is functional, cell-based. Conditions: HL-60, 48 h.
The next assay concerns HCT-116. In words: Cytotoxicity against human HCT116 cells after 48 hrs by MTT assay. The class given is functional, cell-based. Conditions: HCT-116, 48 h.

For `COc1ccc(C[C@H]2C(=O)N[C@@H](C)C(=O)N(C)[C@H]3Cc4ccc(cc4)Oc4cc(ccc4OC)C[C@@H](C(=O)N[C@H](C)C(=O)N[C@@H](C)C(=O)N2C)N(C)C3=O)cc1`, the IC50 worked out at 0.0025 µg/mL (≈ 0.00324 µM) with HL-60 and 0.0033 µg/mL (≈ 0.00428 µM) in the assay with HCT-116.
Consider `COc1ccc(C[C@H]2C(=O)N[C@@H](C)C(=O)N(C)[C@H]3Cc4ccc(cc4)Nc4cc(ccc4OC)C[C@@H](C(=O)N[C@H](C)C(=O)N[C@@H](C)C(=O)N2C)N(C)C3=O)cc1`, for which the figures for the IC50 in the assay with HL-60 and with HCT-116 were 0.018 µg/mL (≈ 0.0234 µM) and 0.017 µg/mL (≈ 0.0221 µM), respectively.
